11 compounds from patent publication US20250215029A1 (Recludix Pharma, Inc., priority 2022, published 2025) can be followed below.

Read-outs that look alike come from different tables or passages of the source.

The target of experiment [1] is T1, pY705-STAT3 in PBMC (Homo sapiens, UniProt P40763).
T1 construct: Cryopreserved Peripheral Blood Mononuclear Cells (PBMC) are from AllCells; host or cells: cryopreserved PBMC
Put plainly: MSD-pSTAT-PBMC Assay (pSTAT3, IL-6 stimulated). As to conditions: PBMC, compound 3 hrs, then 10 ng/mL IL-6 for 10 min; Table 1114; read-out: pSTAT3. The experiment is classed as cell-based. A digest of the protocol: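 Thawed human PBMC rested overnight in IMDM/10% FBS, then got compound for 3 hrs before a 10 min cytokine pulse: 1 ng/mL IL-4 for pSTAT6, 10 ng/mL IL-6 for pSTAT3. Lysates went to MSD sandwich capture on total STAT6 or STAT3 with phospho-specific detection. IC50 came from background-subtracted, DMSO-normalized signal.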

The target in experiment [2] is T2, pY641-STAT6 in PBMC (Homo sapiens, UniProt P42226).
T2 construct: Cryopreserved Peripheral Blood Mononuclear Cells (PBMC) are from AllCells; host or cells: cryopreserved PBMC
T2 sequence (P42226 1-847): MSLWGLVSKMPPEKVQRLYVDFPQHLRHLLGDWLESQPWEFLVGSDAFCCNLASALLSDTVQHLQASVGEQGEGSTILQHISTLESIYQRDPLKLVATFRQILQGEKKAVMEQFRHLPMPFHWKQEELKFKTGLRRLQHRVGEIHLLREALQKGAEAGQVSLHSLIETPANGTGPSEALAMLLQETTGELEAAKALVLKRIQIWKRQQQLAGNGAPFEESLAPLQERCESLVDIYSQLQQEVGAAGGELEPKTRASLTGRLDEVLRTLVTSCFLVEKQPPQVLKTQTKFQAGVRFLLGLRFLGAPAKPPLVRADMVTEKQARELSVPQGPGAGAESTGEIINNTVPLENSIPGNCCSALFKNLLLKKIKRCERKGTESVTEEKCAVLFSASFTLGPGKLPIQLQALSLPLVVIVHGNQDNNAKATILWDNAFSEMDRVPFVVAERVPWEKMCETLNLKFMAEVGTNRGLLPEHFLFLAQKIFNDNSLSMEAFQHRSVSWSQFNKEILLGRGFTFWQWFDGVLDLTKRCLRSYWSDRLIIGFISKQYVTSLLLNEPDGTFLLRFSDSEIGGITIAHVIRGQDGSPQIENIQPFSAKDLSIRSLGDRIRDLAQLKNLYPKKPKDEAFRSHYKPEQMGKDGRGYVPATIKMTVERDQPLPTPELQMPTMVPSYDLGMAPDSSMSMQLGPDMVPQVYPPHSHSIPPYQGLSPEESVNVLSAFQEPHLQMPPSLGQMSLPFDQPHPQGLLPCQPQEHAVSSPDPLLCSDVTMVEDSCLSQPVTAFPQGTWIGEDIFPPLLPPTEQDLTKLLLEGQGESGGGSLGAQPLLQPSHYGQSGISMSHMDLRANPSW
Put plainly: MSD-pSTAT-PBMC Assay (pSTAT6, IL-4 stimulated). The experiment is classed as cell-based. The settings on record: compound 3 hrs, then 1 ng/mL IL-4 for 10 min, Table 1114. A digest of the protocol:
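PBMC (human, cryopreserved, overnight recovery) + cpd 3 hrs → IL-6 10 ng/mL (STAT3) or IL-4 1 ng/mL (STAT6) ×10 min → lysis with protease/phosphatase inhibitors → MSD capture/phospho detection. IC50, variable slope, DMSO-normalized.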

T1 sequence (P40763 whole entry): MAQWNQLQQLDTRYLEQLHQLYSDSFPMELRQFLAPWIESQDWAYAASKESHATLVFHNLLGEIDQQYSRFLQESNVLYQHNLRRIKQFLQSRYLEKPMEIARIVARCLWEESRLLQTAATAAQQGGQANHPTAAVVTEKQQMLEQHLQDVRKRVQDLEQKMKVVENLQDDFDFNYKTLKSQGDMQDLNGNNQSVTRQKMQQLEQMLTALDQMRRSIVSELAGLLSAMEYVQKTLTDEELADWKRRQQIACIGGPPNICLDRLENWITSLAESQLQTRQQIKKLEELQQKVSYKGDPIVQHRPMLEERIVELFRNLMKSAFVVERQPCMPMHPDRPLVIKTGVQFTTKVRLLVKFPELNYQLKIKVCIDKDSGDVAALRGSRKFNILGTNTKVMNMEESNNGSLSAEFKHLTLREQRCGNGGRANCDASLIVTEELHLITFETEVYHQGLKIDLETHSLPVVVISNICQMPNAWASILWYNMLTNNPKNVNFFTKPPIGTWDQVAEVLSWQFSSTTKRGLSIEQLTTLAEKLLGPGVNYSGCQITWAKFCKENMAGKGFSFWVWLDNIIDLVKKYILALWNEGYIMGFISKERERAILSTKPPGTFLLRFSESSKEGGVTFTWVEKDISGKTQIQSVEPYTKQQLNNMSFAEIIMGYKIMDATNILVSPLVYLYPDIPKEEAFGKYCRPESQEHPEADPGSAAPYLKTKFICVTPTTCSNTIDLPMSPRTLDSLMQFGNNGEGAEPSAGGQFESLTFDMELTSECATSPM

Consider `CC(C)CC(=O)SCCOP(=O)(OCOC(=O)OC(C)C)C(F)(F)c1ccc2sc(C(=O)N[C@H]3CCCC[C@H]4CC[C@@H](C(=O)N5C[C@H](c6ccccc6)[C@@H](C#N)C5)N4C3=O)cc2c1` (single isomer, unassigned) [Compound 166, S-(2-((((2-(((3S,6S,10aS)-3-((3R,4S or 3S,4R)-3-cyano-4-phenylpyrrolidine-1-carbonyl)-5-oxodecahydropyrrolo [1,2-a]azocin-6-yl)carbamoyl)benzo[b]thiophen-5-yl)difluoromethyl) (((isopropoxycarbonyl)oxy)methoxy)phosphoryl)oxy)ethyl)-3-methylbutane thioate], for which the IC50 in experiment [1] is 0.1 to 1 µM; in experiment [2] (PBMC, read-out: pSTAT6), less than 0.1 µM.

For the compound `CC(C)CC(=O)SCCOP(=O)(OCCSC(=O)CC(C)C)C(F)(F)c1ccc2ccc(C(=O)N[C@H]3CCCCC[C@H]4[C@H](O)C[C@@H](C(=O)N5CC(C#N)C(c6cc[nH]c(=O)c6)C5)N4C3=O)cc2c1` (single isomer, unassigned) [Compound 167, S,S′-(((((7-(((1R,3S,6S,11aS)-3-((3S,4R or 3R,4S)-3-cyano-4-(2-oxo-1,2-dihydropyridin-4-yl)pyrrolidine-1-carbonyl)-1-hydroxy-5-oxodecahydropyrrolo [1,2-a]azocin-6-yl)carbamoyl)naphthalen-2-yl)difluoromethyl)phosphoryl)bis(oxy))bis(ethane-2,1-diyl)) bis(3-methylbutane thioate)], the IC50 was greater than 3 µM in experiment [1] and 0.1 to 1 µM in experiment [2] (PBMC, read-out: pSTAT6).

As for `CC(C)CC(=O)SCCOP(=O)(OCCSC(=O)CC(C)C)C(F)(F)c1ccc2ccc(C(=O)N[C@H]3CCCC[C@H]4CC[C@@H](C(=O)N5C[C@@H](C#N)[C@H](c6cc[nH]c(=O)c6)C5)N4C3=O)cc2c1` (single isomer, unassigned) [Compound 168, S,S′-(((((7-(((3S,6S,10aS)-3-((3S,4R or 3R,4S)-3-cyano-4-(2-oxo-1,2-dihydropyridin-4-yl)pyrrolidine-1-carbonyl)-5-oxodecahydropyrrolo [1,2-a]azocin-6-yl)carbamoyl)naphthalen-2-yl)difluoromethyl)phosphoryl)bis(oxy))bis(ethane-2,1-diyl)) bis(3-methylbutane thioate)], the IC50 is 0.1 to 1 µM in experiment [1] and less than 0.1 µM in experiment [2] (PBMC, read-out: pSTAT6).

For the compound `CC(C)(C)C(=O)OCOP(=O)(OCOC(=O)C(C)(C)C)[C@@H](F)c1ccc2sc(C(=O)N[C@H]3CCCC[C@H]4CC[C@@H](C(=O)N5C[C@@H](C#N)[C@H](c6ccccc6)C5)N4C3=O)cc2c1` (single isomer, unassigned) [Compound 183, ((((R)- or (S)-(2-(((3S,6S,10aS)-3-((3S,4R or 3R,4S)-3-cyano-4-phenylpyrrolidine-1-carbonyl)-5-oxodecahydropyrrolo[1,2-a]azocin-6-yl)carbamoyl)benzo[b]thiophen-5-yl)fluoromethyl)phosphoryl)bis(oxy))bis(methylene)bis(2,2-dimethylpropanoate))], the IC50 was 0.1 to 1 µM in experiment [1] and less than 0.1 µM in experiment [2] (PBMC, read-out: pSTAT6).

For the compound `CC(C)(C)C(=O)OCOP(=O)(OCOC(=O)C(C)(C)C)[C@@H](F)c1ccc2sc(C(=O)N[C@H]3CCCC[C@H]4CC[C@@H](C(=O)N5C[C@@H](C#N)[C@H](c6ccccc6)C5)N4C3=O)cc2c1` (single isomer, unassigned) [Compound 184, ((((S)- or (R)-(2-(((3S,6S, 10aS)-3-((3S,4R or 3R,4S)-3-cyano-4-phenyl-pyrrolidine-1-carbonyl)-5-oxodeca-hydropyrrolo [1,2-a]azocin-6-yl)carbamoyl)benzo[b]thiophen-5-yl)fluoromethyl)phosphoryl)bis(oxy)) bis(methylene) bis(2,2-dimethyl-propanoate)], the IC50 in experiment [1] is 0.1 to 1 µM; in experiment [2] (PBMC, read-out: pSTAT6), less than 0.1 µM.

As for `CC(C)(C)C(=O)OCOP(=O)(OCOC(=O)C(C)(C)C)C(F)(F)c1ccc2sc(C(=O)N[C@H]3C[C@@H](O)CC[C@H]4CC[C@@H](C(=O)N5C[C@H](c6ccccc6)[C@@H](C#N)C5)N4C3=O)cc2c1` (single isomer, unassigned) [Compound 185, ((((2-(((3S,6S,8S, 10aR)-3-((3R,4S or 3S,4R)-3-cyano-4-phenyl-pyrrolidine-1-carbonyl)-8-hydroxy-5-oxodeca-hydropyrrolo [1,2-a]azocin-6-yl)carbamoyl)benzo[b]thiophen-5-yl)difluoro-methyl)phos-phoryl)bis(oxy)) bis(methylene) bis(2,2-dimethyl-propanoate)], the IC50 in experiment [1] was 0.1 to 1 µM; in experiment [2] (PBMC, read-out: pSTAT6) it was less than 0.1 µM.

Turning to `CC(C)(C)C(=O)OCOP(=O)(OCOC(=O)C(C)(C)C)C(F)(F)c1ccc2ccc(C(=O)N[C@H]3CCCC[C@H]4CC[C@@H](C(=O)N5C[C@@H](C#N)[C@]6(C5)C(=O)Nc5ccccc56)N4C3=O)cc2c1` (single isomer, unassigned) [Compound 193], the IC50 is less than 0.1 µM in experiment [1] and less than 0.1 µM in experiment [2] (PBMC, read-out: pSTAT6).

For the compound `CC(C)OC(=O)[C@H](C)NP(=O)(Cc1ccc2sc(C(=O)N[C@H]3CCCC[C@H]4CC[C@@H](C(=O)N5C[C@H](c6cc[nH]c(=O)c6)[C@@H](C#N)C5)N4C3=O)cc2c1)Oc1ccccc1` (single isomer, unassigned) [Compound 197, isopropyl (((2-(((3S,6S,10aS)-3-((3R,4S or 3S,4R)-3-cyano-4-(2-oxo-1,2-dihydro-pyridin-4-yl)pyrrolidine-1-carbonyl)-5-oxodecahydro-pyrrolo[1,2-a]azocin-6-yl)carbamoyl)benzo[b]thiophen-5-yl)methyl) (phenoxy)phosphoryl)-L-alaninate], the IC50 is greater than 3 µM in experiment [1] and greater than 3 µM in experiment [2] (pSTAT6, PBMC).

Take `CC(C)OC(=O)[C@H](C)NP(=O)(Oc1ccccc1)C(F)c1ccc2sc(C(=O)N[C@H]3CCCC[C@H]4CC[C@@H](C(=O)N5C[C@H](c6cc[nH]c(=O)c6)[C@@H](C#N)C5)N4C3=O)cc2c1` (single isomer, unassigned) [Compound 198, isopropyl (((2-(((3S,6S,10aS)-3-((3R,4S or 3S,4R)-3-cyano-4-(2-oxo-1,2-dihydropyridin-4-yl)pyrrolidine-1-carbonyl)-5-oxodecahydro-pyrrolo[1,2-a]azocin-6-yl)carbamoyl)benzo[b]thiophen-5-yl)fluoro-methyl) (phenoxy)phosphoryl)-L-alaninate]: the IC50 in experiment [1] is greater than 3 µM; in experiment [2] (pSTAT6, PBMC), greater than 3 µM.

`CC(C)(CO)C(=O)SCCOP(=O)(Cc1ccc2sc(C(=O)NC3CCCCC4CCC(C(=O)N5CC(C#N)C(c6ccccc6)C5)N4C3=O)cc2c1)OCCSC(=O)C(C)(C)CO` (single isomer, unassigned) [Compound 199, S,S′-(((((2-(((3S,6S,10aS)-3-((3S,4R or 3R,4S)-3-cyano-4-phenylpyrrolidine-1-carbonyl)-5-oxodecahydropyrrolo[1,2-a]azocin-6-yl)carbamoyl)benzo[b]thiophen-5-yl)methyl)phosphoryl)bis(oxy))bis(ethane-2,1-diyl))bis(3-hydroxy-2,2-dimethylpropanethioate)trifluoroacetate]: the IC50 was greater than 3 µM in experiment [1] and greater than 3 µM in experiment [2] (PBMC, read-out: pSTAT6).

As for `CC(C)(CO)C(=O)SCCOP(=O)(OCCSC(=O)C(C)(C)CO)C(F)(F)c1ccc2sc(C(=O)N[C@H]3CCCC[C@H]4CC[C@@H](C(=O)N5C[C@@H](C#N)[C@H](c6ccccc6)C5)N4C3=O)cc2c1` (single isomer, unassigned) [Compound 200, S,S′-(((((2-(((3S,6S,10a S)-3-((3S,4R or 3R,4S)-3-cyano-4-phenylpyrrolidine-1-carbonyl)-5-oxodecahydro-pyrrolo [1,2-a]azocin-6-yl)carbamoyl)benzo[b]thiophen-5-yl)difluoromethyl)phosphoryl)bis(oxy))bis(ethane-2,1-diyl)) bis(3-hydroxy-2,2-dimethyl-propanethioate)], the IC50 in experiment [1] was 1 to 3 µM; in experiment [2] (PBMC, read-out: pSTAT6), greater than 3 µM.
